In US20260356957A1, “METHODS FOR TREATMENT OF NON-SMALL CELL LUNG CANCER (NSCLC)” (Janssen Biotech, Inc., priority 2023, published 2026):

Assay: MARIPOSA Phase 3, adverse events
Assay type: in vivo, human
Text: • 1. […] Incidence and Severity of Adverse Events (AEs) [Time Frame: Up to approximately 60 months]. Incidence and severity of treatment emergent adverse events (TEAEs) will be reported. Any adverse event occurring at or after the initial administration of study treatment through the day of last dose plus 30 days, or until the start of subsequent anticancer therapy (if earlier), is considered to be treatment emergent. • 8. Number of Participants with Clinical Laboratory Abnormalities [Time Frame: Up to approximately 60 months]. Number of participants with clinical laboratory abnormalities (serum chemistry, hematology, blood coagulation, and urine samples) will be reported. • 9. Number of Participants with Vital Signs Abnormalities [Time Frame: Up to approximately 60 months]. Number of participants with vital signs abnormalities (temperature, heart rate, respiratory rate, oxygen saturation, blood pressure) will be reported. • 10. Number of Participants with Physical Examination Abnormalities [Time Frame: Up to approximately 60 months]. Number of participants with physical examination abnormalities will be reported. • 11. […] The NSCLC-SAQ contains 7 items that assess cough, pain, dyspnea, fatigue, and poor appetite over a 7-day recall period. Each multi-item scale and individual item will be summarized using count and percent by visit. • 15. […] EORTC-QLQ-C30 is a core 30-item questionnaire for evaluating the health-related quality of life (HRQOL) of participants participating in cancer clinical studies. • 16.

[1] = TEAE leading to dose reductions of any study agent
[2] = TEAE leading to interruptions of any study agent
[3] = adverse events, listed as osimertinib
[4] = pneumonitis and interstitial lung disease

Structure (SMILES): C=CC(=O)Nc1cc(Nc2nccc(-c3cn(C)c4ccccc34)n2)c(OC)cc1N(C)CCN(C)C [Osimertinib]
- Skin lesion [1]: 0 no. (%)
- Stomatitis [1]: 0 no. (%)
- Asthenia [2]: 1 (0.2) no. (%)
- COVID-19 [2]: 36 (8) no. (%)
- Deep vein thrombosis [2]: 2 (0.5) no. (%)
- Dermatitis acneiform [2]: 1 (0.2) no. (%)
- Diarrhea [2]: 6 (1) no. (%)
- Hypoalbuminemia [2]: 0 no. (%)
- Increased alanine aminotransferase [2]: 12 (3) no. (%)
- Increased aspartate aminotransferase [2]: 11 (3) no. (%)
- Increased γ-glutamyltransferase [2]: 5 (1) no. (%)
- Paronychia [2]: 4 (1) no. (%)
- Peripheral edema [2]: 0 no. (%)
- Pneumonia [2]: 18 (4) no. (%)
- Pulmonary embolism [2]: 9 (2) no. (%)
- Rash [2]: 4 (1) no. (%)
- Stomatitis [2]: 4 (1) no. (%)
- Any venous thromboembolism event leading to death (VTE): 2 (0.5) no. (%)
- Any venous thromboembolism event leading to discontinuation of any agent (VTE): 2 (0.5) no. (%)
- Any venous thromboembolism event, Grade 1 (VTE): 0 no. (%)
- Any venous thromboembolism event, Grade 2 (VTE): 24 (6) no. (%)
- Any venous thromboembolism event, Grade 3 (VTE): 12 (3) no. (%)
- Any venous thromboembolism event, Grade 4 (VTE): 1 (0.2) no. (%)
- Any venous thromboembolism event, Grade 5 (VTE): 2 (0.5) no. (%)
- Axillary vein thrombosis (VTE event): 0 no. (%)
- Deep vein thrombosis (VTE event): 11 (3) no. (%)
- Embolism (VTE event): 3 (1) no. (%)
- Embolism venous (VTE event): 1 (0.2) no. (%)
- Jugular vein thrombosis (VTE event): 0 no. (%)
- Pelvic venous thrombosis (VTE event): 1 (0.2) no. (%)
- Portal vein thrombosis (VTE event): 0 no. (%)
- Post thrombotic syndrome (VTE event): 0 no. (%)
- Pulmonary embolism (VTE event): 20 (5) no. (%)
- Pulmonary infarction (VTE event): 0 no. (%)
- Pulmonary thrombosis (VTE event): 1 (0.2) no. (%)
- Sigmoid sinus thrombosis (VTE event): 0 no. (%)
- Superficial vein thrombosis (VTE event): 0 no. (%)
- Superior sagittal sinus thrombosis (VTE event): 0 no. (%)
- Superior vena cava syndrome (VTE event): 1 (0.2) no. (%)
- Thrombophlebitis (VTE event): 4 (1) no. (%)
- Thrombosis (VTE event): 1 (0.2) no. (%)
- Vena cava thrombosis (VTE event): 0 no. (%)
- Venous thrombosis (VTE event): 1 (0.2) no. (%)
- Venous thrombosis limb (VTE event): 1 (0.2) no. (%)
- Any event leading to discontinuations of any study agent (adverse events): 58 (14) no. (%)
- Any event leading to interruptions of any study agent (adverse events): 165 (39) no. (%)
- Any event leading to reductions of any study agent (adverse events): 23 (5) no. (%)
- Any event resulting in death (adverse events): 31 (7) no. (%)
- Any serious event (adverse events): 143 (33) no. (%)
- Grade ≥3 (adverse events): 183 (43) no. (%)
- Any event (adverse events, safety population): 425 (99) no. (%)
- Any event leading to discontinuations of any study agent [3]: 58 (14%) no. (%)
- Any event leading to interruptions of any study agent [3]: 165 (39%) no. (%)
- Any event leading to reductions of any study agent [3]: 23 (5%) no. (%)
- Any event resulting in death [3]: 31 (7%) no. (%)
- Interstitial lung disease/pneumonitis (any grade, both groups): 3%
- Interstitial lung disease/pneumonitis, grade 3 or higher (both groups): 1%
- Adverse events of grade 3 or higher (in vivo): 43%
- Discontinuations of all agents due to treatment-related adverse events (in vivo): 3%
- Receiving anticoagulation at time of first VTE (in vivo): 0%
- Serious adverse events (in vivo): 33%
- Venous thromboembolic (VTE) events (in vivo): 9%
- VTE events in the first 4 months of treatment (of VTE events): 33%
- First bleeding event while on anticoagulants (on anticoagulants): 14 (3) no. (%)
- Recurrent venous thromboembolism event while on anticoagulants (on anticoagulants): 0 no. (%)
- Anticoagulation concomitant use (on study): 81 (19) no. (%)
- Interstitial lung disease, Duration of event, median no. of days (range) [4]: 20 (1-189) days
- Interstitial lung disease, No. of days to first onset, median (range) [4]: 115 (9-512) days
- Interstitial lung disease, No. of patients (%) [4]: 13 (3) no. (%)
- Alanine aminotransferase increased (serious TEAE): 6 (1) no. (%)
- COVID-19 (serious TEAE): 10 (2) no. (%)
- Cardiac failure (serious TEAE): 5 (1) no. (%)
- Deep vein thrombosis (serious TEAE): 2 (0.5) no. (%)
- Dyspnea (serious TEAE): 11 (3) no. (%)
- Hypoalbuminemia (serious TEAE): 0 no. (%)
- Hyponatremia (serious TEAE): 4 (1) no. (%)
- Infusion related reaction (serious TEAE): 0 no. (%)
- Interstitial lung disease (serious TEAE): 5 (1) no. (%)
- Pericardial effusion (serious TEAE): 5 (1) no. (%)
- Pleural effusion (serious TEAE): 17 (4) no. (%)
- Pneumonia (serious TEAE): 21 (5) no. (%)
- Pneumonitis (serious TEAE): 8 (2) no. (%)
- Pulmonary embolism (serious TEAE): 10 (2) no. (%)
- Rash (serious TEAE): 0 no. (%)
- Respiratory failure (serious TEAE): 2 (0.5) no. (%)
- Any event (treatment-related AE): 378 (88) no. (%)
- Any event resulting in death (treatment-related AE): 2 (0.5) no. (%)
- Any serious event (treatment-related AE): 24 (6) no. (%)
- Grade ≥3 (treatment-related AE): 59 (14) no. (%)
- Decreased appetite (treatment-related AE, All): 40 (9) no. (%)
- Dermatitis acneiform (treatment-related AE, All): 54 (13) no. (%)
- Diarrhea (treatment-related AE, All): 149 (35) no. (%)
- Dry skin (treatment-related AE, All): 54 (13) no. (%)
- Hypoalbuminemia (treatment-related AE, All): 11 (3) no. (%)
- Increased alanine aminotransferase (treatment-related AE, All): 38 (9) no. (%)
- Increased aspartate aminotransferase (treatment-related AE, All): 34 (8) no. (%)
- Infusion-related reaction (treatment-related AE, All): 0 no. (%)
- Nausea (treatment-related AE, All): 32 (7) no. (%)
- Paronychia (treatment-related AE, All): 115 (27) no. (%)
- Peripheral edema (treatment-related AE, All): 10 (2) no. (%)
- Pruritus (treatment-related AE, All): 63 (15) no. (%)
- Rash (treatment-related AE, All): 121 (28) no. (%)
- Stomatitis (treatment-related AE, All): 77 (18) no. (%)
- Thrombocytopenia (treatment-related AE, All): 75 (18) no. (%)
- Decreased appetite (treatment-related AE, Grade ≥3): 1 (0.2) no. (%)
- Dermatitis acneiform (treatment-related AE, Grade ≥3): 0 no. (%)
- Diarrhea (treatment-related AE, Grade ≥3): 2 (0.5) no. (%)
- Dry skin (treatment-related AE, Grade ≥3): 1 (0.2) no. (%)
- Hypoalbuminemia (treatment-related AE, Grade ≥3): 0 no. (%)
- Increased alanine aminotransferase (treatment-related AE, Grade ≥3): 4 (1) no. (%)
- Increased aspartate aminotransferase (treatment-related AE, Grade ≥3): 1 (0.2) no. (%)
- Infusion-related reaction (treatment-related AE, Grade ≥3): 0 no. (%)
- Nausea (treatment-related AE, Grade ≥3): 1 (0.2) no. (%)
- Paronychia (treatment-related AE, Grade ≥3): 2 (0.5) no. (%)
- Peripheral edema (treatment-related AE, Grade ≥3): 0 no. (%)
- Pruritus (treatment-related AE, Grade ≥3): 1 (0.2) no. (%)
- Rash (treatment-related AE, Grade ≥3): 3 (1) no. (%)
- Stomatitis (treatment-related AE, Grade ≥3): 1 (0.2) no. (%)
- Thrombocytopenia (treatment-related AE, Grade ≥3): 3 (1) no. (%)
